According to patent publication US9708336B2, “Metallo-beta-lactamase inhibitors” (priority 2014, dated 2017):
Like-named read-outs stand apart in the source and are kept apart here.

Experiments:
NDM-1 = NDM-1 (Klebsiella pneumoniae, UniProt C7C422); assay: biochemical; assay type: biochemical; conditions: read-out: NDM-1 IC50
IMP-1 = IMP-1 (Serratia marcescens, UniProt P52699); assay: biochemical; assay type: biochemical; conditions: read-out: IMP-1 IC50
VIM-1 = VIM-1 (Pseudomonas aeruginosa (strain ATCC 15692 / DSM 22644 / CIP 104116 / JCM 14847 / LMG 12228 / 1C / PRS 101 / PAO1), UniProt A0A0F7KYQ8); assay: Enzyme activity: determination of IC50, fluorescence assay with CCF2-FA substrate (VIM-1); assay type: biochemical
[1] = system: Escherichia coli expressing NDM-1 (CLB30016); assay: Antibiotic potentiation activity: synergistic concentration (MITC95) with imipenem, OD600 growth; assay type: cell-based; conditions: for Escherichia coli expressing NDM-1 (CLB 30016) MITC95: concentration giving 95% inhibition of bacterial growth
How it was run: (§1)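 Compound activity is tested with and without imipenem, which is present at 4 μg/ml (or 1 μg/ml) in the well. Bacteria in 1.1× CAMHB are incubated 22–24 h at 35 °C; absorbance gives the growth endpoint.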

[2] = system: Klebsiella pneumoniae expressing VIM-1 (IHMA599644); assay: as above; assay type: cell-based; conditions: for Klebsiella pneumoniae expressing VIM-1 (IHMA 599644) MITC95: concentration giving 95% inhibition of bacterial growth
How it was run: as §1

[3] = system: Serratia marcescens expressing IMP-1 (CL5741); assay: as above; assay type: cell-based; conditions: for Serratia marcescens expressing IMP-1 (CL5741) MITC95: concentration giving 95% inhibition of bacterial growth
How it was run: as §1

[4] = NDM-1 enzyme, CCF2-FA fluorescence assay
[5] = IMP-1 enzyme, CCF2-FA fluorescence assay
[6] = VIM-1 enzyme, CCF2-FA fluorescence assay, read-out: VIM-1 IC50
[7] = Escherichia coli expressing NDM-1 (CLB30016), 95% growth inhibition
[8] = Klebsiella pneumoniae expressing VIM-1 (IHMA599644), 95% growth inhibition
[9] = Serratia marcescens expressing IMP-1 (CL5741), 95% growth inhibition
[10] = fluorescence assay with CCF2-FA substrate
[11] = fluorescence assay with CCF2-FA substrate, read-out: VIM-1 IC50
[12] = CLB30016 (NDM-1), 95% inhibition of bacterial growth
[13] = IHMA599644 (VIM-1), 95% inhibition of bacterial growth
[14] = CL5741 (IMP-1), 95% inhibition of bacterial growth
[15] = NDM-1 enzyme, CCF2-FA substrate
[16] = IMP-1 enzyme, CCF2-FA substrate
[17] = VIM-1 IC50, VIM-1 enzyme, CCF2-FA substrate
[18] = (CLB30016, NDM-1), 95% growth inhibition
[19] = Klebsiella pneumoniae IHMA599644 (VIM-1), 95% growth inhibition
[20] = Serratia marcescens CL5741 (IMP-1), 95% growth inhibition
[21] = VIM-1 enzyme, CCF2-FA substrate, read-out: VIM-1 IC50

Sequence of NDM-1 (C7C422 whole entry, looked up, species assumed): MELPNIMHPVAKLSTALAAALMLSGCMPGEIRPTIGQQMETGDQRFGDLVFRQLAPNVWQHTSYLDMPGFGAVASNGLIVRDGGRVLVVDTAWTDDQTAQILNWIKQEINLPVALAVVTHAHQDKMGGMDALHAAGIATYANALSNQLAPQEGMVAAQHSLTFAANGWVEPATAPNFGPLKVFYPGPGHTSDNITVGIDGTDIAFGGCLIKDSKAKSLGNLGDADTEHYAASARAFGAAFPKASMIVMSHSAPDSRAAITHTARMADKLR
Sequence of IMP-1 (P52699 whole entry, looked up): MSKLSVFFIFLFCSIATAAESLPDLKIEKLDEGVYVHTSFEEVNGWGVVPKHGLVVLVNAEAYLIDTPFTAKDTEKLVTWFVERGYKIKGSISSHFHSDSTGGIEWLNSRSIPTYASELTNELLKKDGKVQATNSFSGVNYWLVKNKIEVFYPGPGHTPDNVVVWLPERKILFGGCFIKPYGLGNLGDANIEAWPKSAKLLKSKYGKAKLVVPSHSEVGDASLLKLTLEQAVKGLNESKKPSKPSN

| SMILES | IC50 (NDM-1; [4]) | IC50 (IMP-1; [5]) | IC50 (VIM-1; [6]) | Escherichia coli MITC95 [1, 7] | Klebsiella pneumoniae MITC95 [2, 8] | Serratia marcescens MITC95 [3, 9] | IC50 (NDM-1; [15]) | IC50 (IMP-1; [16]) | Escherichia coli MITC95 [1, 18] | Klebsiella pneumoniae MITC95 [2, 19] | Serratia marcescens MITC95 [3, 20] | other results |
| --- | --- | --- | --- | --- | --- | --- | --- | --- | --- | --- | --- | --- |
| Nc1ccc(-c2cccc(S(N)(=O)=O)c2-c2nnn[nH]2)c2ccncc12 [Example 415, 3-(8-amino-5-isoquinolyl)-2-(1H-tetrazol-5-yl)benzenesulfonamide] | 0.00058 µM | 0.0323 µM | 0.0011 µM | 0.5859 µM | 3.125 µM | 1.172 µM |  |  |  |  |  |  |
| CN(CC(=O)O)Cc1ccc(-c2cccc(S(N)(=O)=O)c2-c2nnn[nH]2)cc1 [Example 364, N-methyl-N-{[3′-sulfamoyl-2′-(1H-tetrazol-5-yl)biphenyl-4-yl]methyl}glycine] | 0.00917 µM | 0.1 µM | 0.212 µM | 1.563 µM | 25 µM | 3.125 µM |  |  |  |  |  |  |
| NS(=O)(=O)c1cccc(C2=CCOCC2)c1-c1nnn[nH]1 [Example 140, 3-(3,6-dihydro-2H-pyran-4-yl)-2-(1H-tetrazol-5-yl)benzenesulfonamide] |  |  |  |  |  |  |  |  |  |  |  | IC50 (NDM-1; [10]): 0.00768 µM; IC50 (IMP-1; [10]): 0.16 µM; IC50 (VIM-1; [11]): 0.388 µM; Escherichia coli expressing NDM-1 (CLB 30016) MITC95 [1]: 0.5859 µM; Klebsiella pneumoniae expressing VIM-1 (IHMA 599644) MITC95 [2]: 50 µM; Serratia marcescens expressing IMP-1 (CL5741) MITC95 [3]: 6.25 µM |
| Nc1cncc(-c2cccc(S(N)(=O)=O)c2-c2nnn[nH]2)n1 [Example 137, 3-(6-aminopyrazin-2-yl)-2-(1H-tetrazol-5-yl)benzenesulfonamide] |  |  |  |  |  |  |  |  |  |  |  | IC50 (NDM-1; [10]): 0.0307 µM; IC50 (IMP-1; [10]): 2.53 µM; IC50 (VIM-1; [11]): 0.561 µM; Escherichia coli expressing NDM-1 (CLB 30016) MITC95 [1]: 1.172 µM; Klebsiella pneumoniae expressing VIM-1 (IHMA 599644) MITC95 [2]: 25 µM; Serratia marcescens expressing IMP-1 (CL5741) MITC95 [3]: 25 µM |
| NS(=O)(=O)c1c(C(F)(F)F)ccc(-c2ccc(C3CCNC3)cc2)c1-c1nn[nH]n1 (stereo not drawn) [Example 443, 4′-(pyrrolidin-3-yl)-2-(2H-tetrazol-5-yl)-4-(trifluoromethyl)-[1,1′-biphenyl]-3-sulfonamide] | 0.000909 µM | 0.00134 µM | 0.000497 µM | 0.7734 µM | 0.8906 µM | 0.09375 µM |  |  |  |  |  |  |
| NC1CCCC12CCN(c1ccc(C(F)(F)F)c(S(N)(=O)=O)c1-c1nnn[nH]1)CC2 (stereo not drawn) [Example 761, 3-(1-amino-8-azaspiro[4.5]dec-8-yl)-2-(1H-tetrazol-5-yl)-6-(trifluoromethyl) benzenesulfonamide] |  |  |  |  |  |  |  |  |  |  |  | IC50 (NDM-1; [10]): 0.046 µM; IC50 (IMP-1; [10]): 0.104 µM; IC50 (VIM-1; [11]): 0.0483 µM; Escherichia coli MITC95 [1, 12]: 100 µM; Klebsiella pneumoniae MITC95 [2, 13]: >200 µM; Serratia marcescens MITC95 [3, 14]: 100 µM |
| NS(=O)(=O)c1c(C[C@H]2CC[C@H](N)CC2)ccc(-c2ccc(C3CNC3)cc2)c1-c1nn[nH]n1 [Example 595, 4-(((1r,4r)-4-aminocyclohexyl)methyl)-4′-(azetidin-3-yl)-2-(2H-tetrazol-5-yl)-[1,1′-biphenyl]-3-sulfonamide] |  |  |  |  |  |  | 0.00434 µM | 0.0426 µM | 0.7813 µM | 1.563 µM | 3.125 µM | IC50 (VIM-1; [17]): 0.0013 µM |
| NS(=O)(=O)c1cccc(-c2ccc(CNCCc3cc[nH]n3)cc2)c1-c1nnn[nH]1 [Example 389, 4′-({[2-(1H-pyrazol-3-yl)ethyl]amino}methyl)-2-(1H-tetrazol-5-yl)biphenyl-3-sulfonamide] | 0.00333 µM | 0.064 µM | 0.146 µM | 1.563 µM | 75 µM | 2.344 µM |  |  |  |  |  |  |
| NS(=O)(=O)c1c(C(F)(F)F)ccc(-c2cccc(C3CCNC3)c2)c1-c1nnn[nH]1 (stereo not drawn) [Example 722, 3′-pyrrolidin-3-yl-2-(1H-tetrazol-5-yl)-4-(trifluoromethyl)biphenyl-3-sulfonamide] |  |  |  |  |  |  | 0.0208 µM | 0.0217 µM | 12.5 µM | 6.25 µM | 25 µM | IC50 (VIM-1; [21]): 0.00146 µM |
| CN1CCC2(CCN(c3ccc(-c4cccc(S(N)(=O)=O)c4-c4nnn[nH]4)cn3)C2)C1 (stereo not drawn) [Example 632, 3-[6-(7-methyl-2,7-diazaspiro[4.4]nonan-2-yl)-3-pyridyl]-2-(1H-tetrazol-5-yl)benzenesulfonamide] |  |  |  |  |  |  | 0.0268 µM | 0.254 µM | 1.172 µM | 100 µM | 6.25 µM | IC50 (VIM-1; [21]): 0.482 µM |
| NS(=O)(=O)c1c(Br)ccc(-c2ccnc3ccccc23)c1-c1nn[nH]n1 [Example 266, 6-bromo-3-(quinolin-4-yl)-2-(2H-tetrazol-5-yl)benzenesulfonamide] | 0.00208 µM | 0.0126 µM | 0.000689 µM | 3.125 µM | 9.375 µM | 0.7813 µM |  |  |  |  |  |  |
| NC1Cc2ccc(-c3ccc(C(F)(F)F)c(S(N)(=O)=O)c3-c3nn[nH]n3)cc2C1 (stereo not drawn) [Example 442, 3-(2-amino-2,3-dihydro-1H-inden-5-yl)-2-(2H-tetrazol-5-yl)-6-(trifluoromethyl)benzenesulfonamide] | 0.0118 µM | 0.0165 µM | 0.000268 µM | 1.172 µM | 0.7813 µM | 0.5859 µM |  |  |  |  |  |  |
| NS(=O)(=O)c1c(C(F)(F)F)ccc([C@H]2CC[C@H](O)CC2)c1-c1nnn[nH]1 [Example 496] |  |  |  |  |  |  | 0.000506 µM | 0.00109 µM | 1.172 µM | 3.125 µM | 0.3906 µM | IC50 (VIM-1; [21]): 0.000397 µM |
| NC1CCCc2ccc(-c3ccc(C(F)(F)F)c(S(N)(=O)=O)c3-c3nnn[nH]3)cc21 (stereo not drawn) [Example 731, 3-(8-amino-5,6,7,8-tetrahydronaphthalen-2-yl)-2-(1H-tetrazol-5-yl)-6-(trifluoromethyl)benzenesulfon-amide] |  |  |  |  |  |  | 0.0613 µM | 0.117 µM | 25 µM | 50 µM | 50 µM | IC50 (VIM-1; [17]): 0.0221 µM |
| NC1CN(C2CCN(c3ccc(C(F)(F)F)c(S(N)(=O)=O)c3-c3nnn[nH]3)CC2)C1 [Example 758, 3-[4-(3-aminoazetidin-1-yl)piperidin-1-yl]-2-(1H-tetrazol-5-yl)-6-(trifluoromethyl) benzenesulfonamide] |  |  |  |  |  |  |  |  |  |  |  | IC50 (NDM-1; [10]): 0.0296 µM; IC50 (IMP-1; [10]): 0.0458 µM; IC50 (VIM-1; VIM-1 IC50, fluorescence assay with CCF2-FA substrate): 0.00244 µM; Escherichia coli MITC95 [1, 12]: 6.25 µM; Klebsiella pneumoniae MITC95 [2, 13]: 6.25 µM; Serratia marcescens MITC95 [3, 14]: 6.25 µM |
| NS(=O)(=O)c1cccc(CCC2CCCCC2)c1-c1nnn[nH]1 [Example 164, 3-(2-cyclohexylethyl)-2-(1H-tetrazol-5-yl)benzenesulfonamide] |  |  |  |  |  |  |  |  |  |  |  | IC50 (NDM-1; [10]): 0.00293 µM; IC50 (IMP-1; [10]): 0.0055 µM; IC50 (VIM-1; [11]): 0.0506 µM; Escherichia coli expressing NDM-1 (CLB 30016) MITC95 [1]: 1.563 µM; Klebsiella pneumoniae expressing VIM-1 (IHMA 599644) MITC95 [2]: 200 µM; Serratia marcescens expressing IMP-1 (CL5741) MITC95 [3]: 0.3906 µM |
| NC(=O)C1CCCN(c2ccc(C(F)(F)F)c(S(N)(=O)=O)c2-c2nnn[nH]2)C1 (stereo not drawn) [Example 662, 1-[3-sulfamoyl-2-(1H-tetrazol-5-yl)-4-(trifluoromethyl)phenyl]piperidine-3-carboxamide] |  |  |  |  |  |  | 0.0116 µM | 0.0371 µM | 6.25 µM | 12.5 µM | 1.953 µM | IC50 (VIM-1; [21]): 0.00458 µM |
